Like-named read-outs stand apart in the source and are kept apart here.
Experiments:
[1] = system: Hedgehog pathway activation on 10T1/2/Smo#3 cells (C3H10T1/2 cells transfected with human Smoothened receptor); assay: Hedgehog pathway activation on 10T1/2/Smo#3 cells measured by ALP activity; type: cell-based; conditions: Mus musculus, C3H 10T1/2, 10T1/2/Smo#3 cells
Procedure, shortened: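 Inhibition of alkaline phosphatase induction, read fluorometrically from 4-methylumbelliferyl phosphate conversion, gave IC50 values; CellTiter-Blue tracked viability in parallel. Cells were the human Smo-transfected 10T1/2/Smo#3 pool, stimulated by 10-20% hShh conditioned medium or the Smo agonist SAG (500 nM).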

[2] = system: Hedgehog pathway activation (GLi-luciferase reporter) in Shh Light II reporter cells; assay: Hedgehog pathway activation on Shh Light II reporter cells measured by luciferase activity; type: cell-based; conditions: Mus musculus, Shh Light II
Procedure, shortened: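 Shh Light II reporter cells carrying a hedgehog-responsive GLi-luciferase reporter were stimulated either with 500 nM SAG, a direct Smoothened agonist, or with conditioned media containing human Sonic Hedgehog (hShh). Test compounds were evaluated for blocking this pathway activation, quantified by luciferase activity. Cell viability was monitored in parallel with the Celltiter-Blue® assay.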

[3] = measured by ALP activity, read-out: ALP (IC50, inhibition of Hedgehog pathway activation)
[4] = hShh activation, read-out: Shh (IC50, inhibition of Hedgehog pathway activation)
[5] = hShh activation, ALP activity, read-out: 10T1/2/Smo#3 ALP activity (hShh Activation)
[6] = SAG activation (500 nM SAG), read-out: Shh Light II luciferase activity (SAG activation)
[7] = hShh activation, read-out: Shh Light II luciferase activity (hShh activation)

| SMILES | IC50 [1, 3] | IC50 [2, 4] | IC50 [1, 5] | IC50 [2, 6] | IC50 [2, 7] |
| --- | --- | --- | --- | --- | --- |
| CCCOc1ccc(F)c(-c2ccc3nc(-c4ccc(C(F)(F)F)c(NC(=O)C(C)(C)C)c4)cn3n2)c1 [Example 253, N-(5-(6-(2-fluoro-5-propoxyphenyl)imidazo[1,2-b]pyridazin-2-yl)-2-(trifluoromethyl)phenyl)pivalamide] | 448 nM | 899 nM |  |  |  |
| CN1CCC(Oc2ccc3nc(-c4ccc(C(F)(F)F)c(NC(=O)C(C)(C)C)c4)cn3n2)CC1 [Example 305, N-(5-(6-(1-methylpiperidin-4-yloxy)imidazo[1,2-b]pyridazin-2-yl)-2-(trifluoromethyl)phenyl)pivalamide] | 3500 nM | 1890 nM |  |  |  |
| CNS(=O)(=O)c1cc(-c2cn3nc(-c4cccnc4C(F)(F)F)ccc3n2)ccc1Cl [Example 698, 2-chloro-N-methyl-5-(6-(2-(trifluoromethyl)pyridin-3-yl)imidazo[1,2-b]pyridazin-2-yl)benzenesulfonamide] | > 10000 nM | 4250 nM |  |  |  |
| CC(C)c1ccc2nc(-c3ccc(C(F)(F)F)c(NC(=O)C(C)(C)C)c3)cn2n1 [Example 140, N-(5-(6-isopropylimidazo[1,2-b]pyridazin-2-yl)-2-(trifluoromethyl)phenyl)pivalamide] | 314 nM | 721 nM |  |  |  |
| Cc1c(-c2ccccc2)nc2ccc(N3CCN(C(=O)CC(C)(C)C)CC3)nn12 [Example 157, 3,3-dimethyl-1-(4-(3-methyl-2-phenylimidazo[1,2-b]pyridazin-6-yl)piperazin-1-yl)butan-1-one] | > 10000 nM | 1950 nM |  |  |  |
| CC(C)(C)C(=O)Nc1cc(-c2cn3nc(OC4CCC4)ccc3n2)ccc1C(F)(F)F [Example 182, N-(5-(6-cyclobutoxyimidazo[1,2-b]pyridazin-2-yl)-2-(trifluoromethyl)phenyl)pivalamide] | 1860 nM | 1740 nM |  |  |  |
| Cc1ccc(-c2cn3nc(N4CCC(N(C)C(=O)C(N)C(C)C)C4)ccc3n2)cc1NC(=O)C(C)(C)C (stereo not shown) [Example 637, 2-amino-N,3-dimethyl-N-(1-(2-(4-methyl-3-pivalamidophenyl)imidazo[1,2-b]pyridazin-6-yl)pyrrolidin-3-yl)butanamide] | 418 nM | 2180 nM |  |  |  |
| CC(C)(C)C(=O)Nc1cc(-c2cn3nc(NCCO)ccc3n2)ccc1C(F)(F)F [Example 304, N-(5-(6-(2-hydroxyethylamino)imidazo[1,2-b]pyridazin-2-yl)-2-(trifluoromethyl)phenyl)pivalamide] | 393 nM | 559 nM |  |  |  |
| Cc1ccc(-c2cn3nc(-c4cccc(O)c4)ccc3n2)cc1NC(=O)C(C)(C)C [Example 264, N-(5-(6-(3-hydroxyphenyl)imidazo[1,2-b]pyridazin-2-yl)-2-methylphenyl)pivalamide] | 544 nM | 2010 nM |  |  |  |
| CC(C)(C)C(=O)Nc1cc(-c2cn3cc(Cl)ncc3n2)ccc1C(F)(F)F [Example 85, N-(5-(6-chloroimidazo[1,2-a]pyrazin-2-yl)-2-(trifluoromethyl)phenyl)pivalamide] | 1320 nM | 4390 nM |  |  |  |
| Cc1c(-c2ccccc2)nc2ccc(N3CCN(C(=O)c4ccccc4)CC3)nn12 [Example 154, (4-(3-methyl-2-phenylimidazo[1,2-b]pyridazin-6-yl)piperazin-1-yl)(phenyl)methanone] | 2890 nM | 3400 nM |  |  |  |
| Cc1ccnc(-c2ccc3nc(-c4ccc(C(F)(F)F)c(NC(=O)C(C)(C)C)c4)cn3n2)c1 [Example 151, N-(5-(6-(4-methylpyridin-2-yl)imidazo[1,2-b]pyridazin-2-yl)-2-(trifluoromethyl)phenyl)pivalamide] | 1810 nM | 899 nM |  |  |  |
| Cc1ccc(-c2cn3ncccc3n2)cc1NC(=O)C(C)(C)C [Example 105, N-(5-(imidazo[1,2-b]pyridazin-2-yl)-2-methylphenyl)pivalamide] | 1810 nM | 1110 nM | 300 to 3000 nM | 3000 to 30000 nM | 300 to 3000 nM |
| CC(C)(C)C(=O)Nc1cc(-c2cn3cc(Cl)ccc3n2)ccc1C(F)(F)F [Example 81, N-(5-(6-chloroimidazo[1,2-a]pyridin-2-yl)-2-(trifluoromethyl)phenyl)pivalamide] | 2430 nM | 1070 nM | 300 to 3000 nM | 300 to 3000 nM | 300 to 3000 nM |

Compounds with a lower IC50 [2, 4], results first:

| IC50 [1, 3] | IC50 [2, 4] | IC50 [1, 5] | IC50 [2, 6] | IC50 [2, 7] | SMILES |
| --- | --- | --- | --- | --- | --- |
| 93 nM | 77 nM |  |  |  | CN[C@H]1CCN(c2ccc3nc(-c4ccc(C)c(NC(=O)C(C)(C)C)c4)cn3n2)C1 [Example 392, (S)-N-(2-methyl-5-(6-(3-(methylamino)pyrrolidin-1-yl)imidazo[1,2-b]pyridazin-2-yl)phenyl)pivalamide] |
| 175 nM | 105 nM | < 300 nM | < 300 nM | < 300 nM | Cc1ccc(-c2cn3nc(-c4cc(O)ccc4C(F)(F)F)ccc3n2)cc1NC(=O)C(C)(C)C [Example 399, N-(5-(6-(5-hydroxy-2-(trifluoromethyl)phenyl)imidazo[1,2-b]pyridazin-2-yl)-2-methylphenyl)pivalamide] |
| 335 nM | 523 nM |  |  |  | Cc1ccc(-c2ccc3nc(-c4ccc(C(F)(F)F)c(NC(=O)C(C)(C)C)c4)cn3n2)cc1 [Example 239, N-(5-(6-p-tolylimidazo[1,2-b]pyridazin-2-yl)-2-(trifluoromethyl)phenyl)pivalamide] |
| 25 nM | 100 nM | < 300 nM | < 300 nM | < 300 nM | CC(C)(C)C(=O)Nc1cc(-c2cn3nc(-c4cccnc4C(F)(F)F)ccc3n2)c(F)cc1Cl [Example 650, N-(2-chloro-4-fluoro-5-(6-(2-(trifluoromethyl)pyridin-3-yl)imidazo[1,2-b]pyridazin-2-yl)phenyl)pivalamide] |
| 2690 nM | 466 nM |  |  |  | CC(C)(C)C(=O)Nc1cc(-c2cn3nc(-c4ccc(F)cc4)ccc3n2)ccc1C(F)(F)F [Example 143, N-(5-(6-(4-fluorophenyl)imidazo[1,2-b]pyridazin-2-yl)-2-(trifluoromethyl)phenyl)pivalamide] |
| 435 nM | 440 nM |  |  |  | Cc1c(-c2ccccc2)nc2ccc(N3CCN(C(=O)NC4CCCCC4)CC3)nn12 [Example 159, N-cyclohexyl-4-(3-methyl-2-phenylimidazo[1,2-b]pyridazin-6-yl)piperazine-1-carboxamide] |
| 271 nM | 318 nM | < 300 nM | 300 to 3000 nM | < 300 nM | CC(C)(C)C(=O)Nc1cc(-c2cn3nc(N4CCC(F)(F)CC4)ccc3n2)ccc1C(F)(F)F [Example 235, N-(5-(6-(4,4-difluoropiperidin-1-yl)imidazo[1,2-b]pyridazin-2-yl)-2-(trifluoromethyl)phenyl)pivalamide] |
|  | 380 nM | 3000 to 30000 nM | 300 to 3000 nM | 300 to 3000 nM | Cc1ccc(-c2cn3nc(-c4ccc(OCCCCCCC(=O)NO)cc4C(F)(F)F)ccc3n2)cc1NC(=O)C(C)(C)C [Example 417, N-hydroxy-7-(4-(2-(4-methyl-3-pivalamidophenyl)imidazo[1,2-b]pyridazin-6-yl)-3-(trifluoromethyl)phenoxy)heptanamide] |
| 554 nM | 332 nM |  |  |  | CC(C)(C)C(=O)Nc1cc(-c2cn3nc(N4CCCC(CO)C4)ccc3n2)ccc1C(F)(F)F (stereo not shown) [Example 354, N-(5-(6-(3-(hydroxymethyl)piperidin-1-yl)imidazo[1,2-b]pyridazin-2-yl)-2-(trifluoromethyl)phenyl)pivalamide] |
| 39 nM | 11 nM | < 300 nM | < 300 nM | < 300 nM | Cc1ccc(-c2cn3nc(-c4ncccc4C(F)(F)F)ccc3n2)cc1NC(=O)C(C)(C)C [Example 400, N-(2-methyl-5-(6-(3-(trifluoromethyl)pyridin-2-yl)imidazo[1,2-b]pyridazin-2-yl)phenyl)pivalamide] |
| 777 nM | 99 nM |  |  |  | O=C(CC(F)(F)F)Nc1cc(-c2cn3nc(-c4cccnc4C(F)(F)F)ccc3n2)ccc1Cl [Example 675, N-(2-chloro-5-(6-(2-(trifluoromethyl)pyridin-3-yl)imidazo[1,2-b]pyridazin-2-yl)phenyl)-3,3,3-trifluoropropanamide] |
| 289 nM | 97 nM |  |  |  | CC(C)(C)C(=O)Nc1cc(-c2cn3nc(-c4cccc(C(F)(F)F)c4)ccc3n2)ccc1C(F)(F)F [Example 223, N-(2-(trifluoromethyl)-5-(6-(3-(trifluoromethyl)phenyl)imidazo[1,2-b]pyridazin-2-yl)phenyl)pivalamide] |
| 140 nM | 59 nM |  |  |  | CC1(C(=O)Nc2cc(-c3cn4nc(-c5cccnc5C(F)(F)F)ccc4n3)ccc2F)CC1 [Example 674, N-(2-fluoro-5-(6-(2-(trifluoromethyl)pyridin-3-yl)imidazo[1,2-b]pyridazin-2-yl)phenyl)-1-methylcyclopropanecarboxamide] |
| 15 nM | 31 nM |  |  |  | CC(CC(=O)Nc1cc(-c2cn3nc(-c4cccnc4C(F)(F)F)ccc3n2)c(F)cc1Cl)C(F)(F)F (stereo not shown) [Example 661, N-(2-chloro-4-fluoro-5-(6-(2-(trifluoromethyl)pyridin-3-yl)imidazo[1,2-b]pyridazin-2-yl)phenyl)-4,4,4-trifluoro-3-methylbutanamide] |
